Data published in paper PMC12549899 (Nature Communications, 2025).
“And” between values parts separate entries of the source, which are not always exact repeats. Equal values may be shown once. Read-outs that look alike come from different tables or passages of the source.

Molecular target: T1, DrOTOP1 I565W (Danio rerio, UniProt Q7ZWK8, I565W)
T1 construct: A previously generated codon-optimized full-length DrOTOP1[8]; (UniProt: Q7ZWK8) construct; expressed in transfected cells; host or cells: HEK-293 (CRL-1573, ATCC)
T1 sequence (Q7ZWK8 1-586 I565W): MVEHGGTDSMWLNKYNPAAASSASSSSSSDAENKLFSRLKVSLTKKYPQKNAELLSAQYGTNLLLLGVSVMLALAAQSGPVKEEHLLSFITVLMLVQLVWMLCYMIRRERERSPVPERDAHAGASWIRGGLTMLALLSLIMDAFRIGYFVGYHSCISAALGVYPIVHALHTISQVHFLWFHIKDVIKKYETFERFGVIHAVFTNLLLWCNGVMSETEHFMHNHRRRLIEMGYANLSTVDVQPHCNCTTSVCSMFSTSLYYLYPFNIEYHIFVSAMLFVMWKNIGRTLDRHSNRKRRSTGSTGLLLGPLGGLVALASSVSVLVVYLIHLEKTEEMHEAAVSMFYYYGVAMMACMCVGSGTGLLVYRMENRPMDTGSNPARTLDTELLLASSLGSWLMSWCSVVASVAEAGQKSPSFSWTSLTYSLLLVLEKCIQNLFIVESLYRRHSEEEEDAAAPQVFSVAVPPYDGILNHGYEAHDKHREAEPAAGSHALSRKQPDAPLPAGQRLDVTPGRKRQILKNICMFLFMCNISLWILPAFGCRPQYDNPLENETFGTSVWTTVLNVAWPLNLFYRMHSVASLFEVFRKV
Experiment: Whole-cell patch-clamp, inhibition of acid-evoked currents, DrOTOP1 I565W (C-domain pocket)
Assay type: cell-based, zebrafish (Danio rerio)
Design: key to inhibition of acid-evoked current, single cells: % inhibition = ((I2peak - I1)/I2peak)*100
Details: for LogAbsoluteIC50: concentration in uM
Text: To experimentally verify whether C11 and C2.2 bind in the C-domain pocket as predicted, we used their docked poses to guide mutagenesis. The predicted interactions for C11 and C2.2 include π-stacking with F342 and Y422, potential H-bonding with Q542, N568, and R572 (Fig. 2J, K and Supplementary Fig. 5A), and hydrophobic packing. We generated single-residue mutants of these and other residues in DrOTOP1 that were expected to disrupt specific molecular interactions or to introduce a bulky tryptophan residue (W) to produce steric hindrance.
HEK-293 cells (CRL-1573, ATCC) were cultured in DMEM (Thermofisher 11995073) containing 10% fetal bovine serum (Life Technology 16000044) and Penicillin-Streptomycin (100 I.U./mL) and (100 µg/mL), respectively. Cells were transfected with WT DrOTOP1 or mutant DrOTOP1 channels in 35 mm petri dishes, with ~ 500 ng DNA and 2 μL TransIT-LT1 transfection reagent (Mirus Bio Corporation, Cat # MIR2300) following the manufacturer’s protocol. All constructs were subcloned into a pcDNA3.1 vector that adds an N-terminal fusion tag consisting of an octahistidine tag followed by eGFP, a Gly-Thr-Gly-Thr linker and a 3C protease cleavage site ([…]) followed by WT DrOTOP1, WT mOTOP1, WT hOTOP1, or mutated DrOTOP1. Point mutations were generated via In-Fusion Cloning (Takara) using single-stranded DNA primers generated through IDT and sequence confirmed by Sanger sequencing (GeneWiz).
Whole-cell patch-clamp recording was performed as previously described[6],[22],[25]. Recordings were made with an Axopatch 200B amplifier, digitized with a Digidata 1322a 16-bit data acquisition system, acquired with pClamp 8.2 and analyzed with Clampfit 10 (Molecular Devices). Recordings were sampled at 5 kHz and filtered at 1 kHz. Patch Pipettes with resistance of […] were fabricated from borosilicate glass, and only recordings with a giga-Ohm seal were used in analysis. Membrane potential was held at −80 mV for the duration of recordings. At the beginning of recordings and between, cells were washed with Tyrode’s solution (see below). Once a giga-Ohm seal was reached, cells were lifted and placed in front of microcapillary tubes controlled by a Fast-Step perfusion system (Warner Instruments) so that extracellular solutions could be rapidly exchanged during each experiment.
Standard Tyrode’s solution consisted of 145 mM NaCl, 5 mM KCl, MgCl2, 2 mM CaCl2, 20 mM D-Glucose, and 10 mM HEPES (for pH 7.4). All other extracellular patch-clamp solutions contained 160 mM NMDG-Cl, 2 mM CaCl2, and the following buffers: 10 mM HEPES (for pH 7.4), 10 mM MES (for pH 6.5-5.5), 10 mM CHES for pH 10, and 10 mM HomoPIPES for (pH 5.0). pH adjusted with HCl. When adding compounds to extracellular solutions, the concentration of DMSO in solution was never higher than 0.3%. The pipette contained intracellular solution made up of 120 mM Cs-aspartate, 15 mM CsCl, 2 mM Mg-ATP, 5 mM EGTA, 2.4 mM CaCl2 (100 nM free Ca^2+), and 10 mM HEPES with a pH of 7.3. All extracellular solution osmolarity was adjusted to 300 mOsm and intracellular osmolarity was adjusted to 290 mOsm.
All data are presented as mean ± SEM unless otherwise noted, and each data point represents an independent replicant. Inhibition of compounds was quantified as ((I2peak-I1)/(I2peak))*100, where I1 is the current immediately before wash-off and I2peak is the maximum recovered current (Supplementary Fig. 2). Hill coefficients were determined by the following equation: Y = Bmax*X^h/(Kd^h + X^h). Absolute IC50 was determined by the following equation: Fifty = (Top + Baseline)/2 Y = Bottom + (Top-Bottom)/(1 + ((Top-Bottom)/(Fifty-Bottom) − 1)*(AbsoluteIC50/X)^HillSlope). pH50 curves (Fig. 6G inset) were determined using the following equation: Y = Bottom + (Top-Bottom)/(1 + (EC/X)^HillSlope) where EC = EC50 control. Graphs with electrophysiological data were made in Graphpad Prism 10 (Graphpad Software Inc). […]

O=C(/C(=N\O)c1ccccc1)c1ccccc1 [C11, benzil monoxime]
Hill coefficient: 1.57 | Shift of IC50 compared with WT: ~ 2.5 fold | inhibition of acid-evoked current, single cells (C11 10 uM, Supp. Fig 5D): 2.087 and 1.672 | inhibition at 10 µM (C11 10 uM, Supp. Fig 5D, read-out: inhibition of acid-evoked current, single cells): 1.63% | inhibition of acid-evoked current, single cells (C11 30 uM, Supp. Fig 5D): 9.463 and 7.048 and 7.021 | inhibition at 30 µM (C11 30 uM, Supp. Fig 5D, read-out: inhibition of acid-evoked current, single cells): 7.27% | inhibition of acid-evoked current, single cells (C11 100 uM, Supp. Fig 5D): 29.7468 and 24.8826 and 21.3974 and 29.1115 | inhibition at 100 µM (C11 100 uM, Supp. Fig 5D, read-out: inhibition of acid-evoked current, single cells): 29.4% | inhibition of acid-evoked current, single cells (C11 200 uM, Supp. Fig 5D): 48.5849 | inhibition at 200 µM (C11 200 uM, Supp. Fig 5D, read-out: inhibition of acid-evoked current, single cells): 42.1% | inhibition of acid-evoked current, single cells (C11 300 uM, Supp. Fig 5D): 63.41 and 66.778 and 78.1609 and 62.1622 and 62.7854 and 80.0142 and 64.4878 | inhibition at 300 µM (C11 300 uM, Supp. Fig 5D, read-out: inhibition of acid-evoked current, single cells): 71.5% | HillSlope (best-fit, Supp. Fig 5D): 1.566 | IC50 (best-fit, Top 100, Bottom 0, Supp. Fig 5D, read-out: AbsoluteIC50): 190 µM | LogAbsoluteIC50 (best-fit, Supp. Fig 5D): 2.279 | IC50 (pH 5.5, read-out: IC50): 190 µM

C=C(C)COc1ccccc1NC(=O)c1nc[nH]c1C [C2.2]
Hill coefficient: 1.22 | Shift of IC50 compared with WT: ~ 10 fold | inhibition of acid-evoked current, single cells (C2.2 3 uM, Supp. Fig 5G): 6.531 and 5.9632 and 6.805 and 3.704 | inhibition at 3 µM (C2.2 3 uM, Supp. Fig 5G, read-out: inhibition of acid-evoked current, single cells): 5.54% | inhibition of acid-evoked current, single cells (C2.2 10 uM, Supp. Fig 5G): 8.1748 and 9.4295 and 12.133 and 10.612 | inhibition at 10 µM (C2.2 10 uM, Supp. Fig 5G, read-out: inhibition of acid-evoked current, single cells): 8.99% | inhibition of acid-evoked current, single cells (C2.2 30 uM, Supp. Fig 5G): 15.885 and 20.063 and 20.497 and 20.983 and 13.0981 and 19.6998 | inhibition at 30 µM (C2.2 30 uM, Supp. Fig 5G, read-out: inhibition of acid-evoked current, single cells): 23.3% | inhibition at 100 µM (C2.2 100 uM, Supp. Fig 5G, read-out: inhibition of acid-evoked current, single cells): 63.2% | inhibition at 300 µM (C2.2 300 uM, Supp. Fig 5G, read-out: inhibition of acid-evoked current, single cells): 78.2% | HillSlope (best-fit, Supp. Fig 5G): 1.217 | IC50 (best-fit, Top 100, Bottom 0, Supp. Fig 5G, read-out: AbsoluteIC50): 82.9 µM | LogAbsoluteIC50 (best-fit, Supp. Fig 5G): 1.918 | IC50 (pH 5.5, read-out: IC50): 82 µM and 82.9 µM
